Columns and labels:
[1] = test system: cultured neuronal network (cortical neurons); experiment: Spiking activity of cultured cortical neuronal network on multi electrode array (MEA); assay type: cell-based, rat
Procedure: Cortical neurons were obtained from newborn rats within 24 hours from birth, following standard harvesting procedures (Culturing nerve cells, 2nd edition, Gary Ranker and Kimberly Goslin, 1998). The cortex tissue was digested enzymatically and mechanically dissociated and the neurons were plated directly onto substrate-integrated multi-electrode array (MEA) dishes prepared as described below. The cultures were bathed in MEM which was supplemented with heat-inactivated horse serum (5%), Glutamine (0.5 mM), Glucose (20 mM), and Gentamycin (10 μg/ml), and maintained in a tissue culture incubator at 37° C., 5% CO2 and 95% during the recording phases. Half of the medium was exchanged twice a week and the experiments were performed during the third week following plating, thus allowing complete maturation of the neurons (FIGS. 1a-b).
Arrays of 60 Ti/Au/TiN electrodes, 30 μm in diameter, spaced 200 μm from each other (MultiChannelSystems (MCS), Reutlingen, Germany) were utilized in the present study. The insulation layer (silicon nitride), was pretreated with poly-L-lysine forming a good surface for network development. A commercial 60-channel amplifier (B-MEA-1060, MCS, Reutlingen, Germany) with frequency limit range of 10-3000 Hz and a gain of ×1024 was utilized for signal amplification. The amplifier was connected to MCPPlus filter amplifiers (Alpha Omega, Nazareth, Israel) for further amplification (×10 to ×20). Stimulation through the MEA was performed using a dedicated 8-channel stimulus generator (MCS, Reutlingen, Germany).
In addition, the micro-incubation environment was arranged to support long-term recordings from MEA dishes. This was achieved by streaming a filtered, heated and humidified air/CO2 (95/5%) gas mixture, and by electrically heating the MEA platform to 37° C. Data is digitized using two 5200a/526 A/D boards (Microstar Laboratories, Wash., USA).
Following electrical functionality determination, the neuronal network cultures were incubated with various electrical conduction blockers.

[2] = test system: cardiomyocyte cultures seeded with naive fibroblasts; experiment: CTx on spontaneous beating rate of control co-cultures (naive fibroblasts) (Example 8); assay type: cell-based, rat; settings: CTx application, control group
Procedure: (§1) Expression system and electrophysiological recordings—NIH 3T3 fibroblast cells (ATCC: CRL 1658) were stably transfected to express the voltage gated potassium channel Kv1.3 as previously described [Feld Y. et al. Circulation. (2002); 105:522-529]. Briefly, stable transfection of pRC/CMV/Kv1.3 in fibroblasts was achieved using electroporation with a single pulse of 200 V, 960° F. followed by antibiotic selection of NeoR clones with 400 μg/mL of G-418 (GIBCO, Langley, Okla., USA). Colonies were picked and tested for channel expression using whole-cell patch clamp recordings. The recordings were conducted at room temperature using Axopatch 200 (Axon Instruments). Kv1.3 expressing fibroblast were generated as previously described [Feld Y. et al. Circulation. (2002); 105:522-9]. […]
(§2) Once a well synchronous spontaneous activity was established in the cardiomyocyte cultures, fibroblasts (naïve, or Kv1.3 expressing fibroblasts) were seeded in a diffuse manner into the cardiomyocytic cultures. Two groups were studied: The cultures were studied daily, and the electrophysiological properties, essentially the spontaneous beating rate of the culture, was assessed at baseline and following application of the specific Kv1.3 blocker, Charybdotoxin (CTx), at increasing dosages (1, 10, 100 nM). […]

[3] = test system: cardiomyocyte cultures seeded with Kv1.3 expressing fibroblasts; experiment: CTx on spontaneous beating rate of study co-cultures (Kv1.3 expressing fibroblasts) (Example 8); assay type: cell-based, rat; settings: CTx 100 nM, study group (FIG. 18b)
Procedure: as §1, §2

[4] = test system: cardiomyocytes co-cultured with fibroblasts (NIH 3T3) transfected with voltage gated potassium channel Kv1.3; experiment: CTX on MEA-recorded activity of cardiomyocytes co-cultured with Kv1.3 transfected fibroblasts (Example 5); assay type: cell-based, rat; settings: for increase of spontaneous activity rate: co-cultures with transfected fibroblasts
Procedure: (§3) Monolayer cultures of neonatal rat ventricular cardiomyocytes (NRVM) were prepared as previously described (Rubin et al, 1995), with some modifications. The cultures were maintained in a humidified incubator under a controlled environment of 5% CO2+95% air at 37° C.; fresh medium was replaced on alternating days.
(§4) Fibroblasts from the NIH 3T3 cell line were transfected with an expression cassette which included a mutant voltage gated potassium channel (Kv1.3) coding sequence (GeneBank Accession number H18261) placed under the transcription control of a constitutive promoter using standard procedures. Fibroblast cultures not transfected with the channel coding sequence were produced from the NIH 3T3 cell-line.
Once well synchronous spontaneous activity was established in the cardiomyocyte cultures, fibroblasts transfected with the Kv1.3 channel coding sequence or non-transfected fibroblasts were added to the cultures. Two different methods where used to seed the fibroblasts. In the first method, the fibroblast were suspended in trypsin for 5 minutes following which they were seeded in a diffuse pattern in the cardiomyocytic cultures (FIG. 4a). In the second method, the fibroblasts where pipetted up and down through a 5 ml pipette for 2 minutes and seeded in the cardiomyocytic cultures thus were forming clusters of fibroblasts (FIG. 4b).
Extracellular recordings from cultured cardiomyocytes were performed on a PC-based Microelectrode Data Acquisition System (Multi Channel Systems, Reutlingen, Germany), consisting of Multi-Electrode Array (MEA), pre- and filter-amplifiers, data acquisition board, and software. The MEA consists of a 50×50 mm glass substrate, in the center of which is an embedded 0.7×0.7 or 1.4×1.4 mm matrix of 60 Titanium-nitride, gold contacts 10 or 30 μm diameter electrodes insulated with silicone nitride, with inter-electrode distance of 100 or 200 μm (there are no electrodes in the corners of the matrix). Data were recorded at 10-25 KHz with 12-bit precision. During the recording sessions, the MEA (removed from the regular incubator) was constantly perfused with a gas mixture consisting of 5% CO2+95% air. Temperature was kept at 37±0.10° C.
Recorded data was filtered using cutoff frequency of 2 KHz (Fast et al, 1993). The filtered signal was then differentiated digitally to determine the Local Activation Time (LAT) at each electrode, corresponding to dF/dtmin (where F is the filtered signal) (Dolber and Spach, 1986). Color-coded activation maps were constructed by interpolating the LAT values for the sites between the electrodes, and by extrapolating the LAT values for the 4 corners of the MEA matrix. Activation maps were plotted by means of Matlab standard 2-d plotting function (pcolor) (Matlab 5.3 Mathworks Incorporated©). Conduction velocity was calculated by standard methods (Bayly et al, 1988).
(§5) Conduction block quantification is central to evaluating conduction block development in the cell cultures, and to evaluating reversibility of the conduction block following CTX application. A conduction block was determined using the following algorithm: […]
(§6) Electrical activity of the cultures was recorded on day one immediately prior to seeding of the fibroblasts and then daily until the cultures died or no spontaneous activity was detected. […]

[5] = test system: cardiomyocyte cultures or cardiomyocytes co-cultured with untransfected fibroblasts; experiment: CTX on MEA-recorded activity of control cultures (Example 5); assay type: cell-based, rat; settings: for increase of spontaneous activity rate: control cultures
Procedure: as §3, §4
Once well synchronous spontaneous activity was established in the cardiomyocyte cultures, fibroblasts transfected with the Kv1.3 channel coding sequence or non-transfected fibroblasts were added to the cultures. Two different methods where used to seed the fibroblasts. In the first method, the fibroblast were suspended in trypsin for 5 minutes following which they were seeded in a diffuse pattern in the cardiomyocytic cultures (FIG. 4a). […]
Extracellular recordings from cultured cardiomyocytes were performed on a PC-based Microelectrode Data Acquisition System (Multi Channel Systems, Reutlingen, Germany), consisting of Multi-Electrode Array (MEA), pre- and filter-amplifiers, data acquisition board, and software. […] Data were recorded at 10-25 KHz with 12-bit precision. […]
Recorded data was filtered using cutoff frequency of 2 KHz (Fast et al, 1993). […] Conduction velocity was calculated by standard methods (Bayly et al, 1988).
as §5, §6

[6] = test system: left ventricular myocardium grafted with naive fibroblasts; experiment: ERP after Margatoxin in rats grafted with naive fibroblasts (control group); assay type: in vivo, rat; settings: animals grafted with naive fibroblasts, 88±4 ms before blocker
Procedure: Rat model—Male Sprague-Dawley rats weighing 200-250 gr were anesthetized using A Xylasine (0.5 mg/kg) and Ketamine (0.5 mg/kg) preparation [see Example 7]. The animals were then intubated and ventilated using a Harvard small-animal mechanical respirator. The chest wall was opened using a left thoracotomy and the heart was exposed. After removal of the pericardium, a total of 6×10^6 cells (either fibroblasts without transfections in the control group or fibroblast overexpressing the KV1.3 channel in the study group) were transplanted into the anterior aspect of the left ventricular wall using a 28 g needle. In order to prevent graft rejection, all animals were treated with a daily dose of cyclosporin (10 mg/kg) and methyprednisolone (2 mg/kg). […]
In vivo electrophysiological studies—The electrophysiological study in rats included a standard ventricular pacing protocol to determine the local myocardial effective refractory period (ERP). The ERP was evaluated by applying a train of 20 stimuli at a fixed cycle-length of 200 ms (S1), followed by a single premature stimulus (S2). […] The ERP was determined as the shortest S1-S2 coupling interval still capable of eliciting a ventricular response. […]
The ERP was measured at the site of cell transplantation and at remote sites, both prior to cell transplantation and seven days following cell grafting. […]

[7] = test system: Kv1.3 channel of grafted fibroblasts in right ventricle; experiment: ERP after local Margatoxin in pigs grafted with Kv1.3 fibroblasts; assay type: in vivo, pig
Procedure: Swine model—Three domestic pigs (20-30) kg were studied. Anesthesia was induced with 5-10 ml of intravenous sodium pentothal 2.5% solution and maintained with inhaled isoflurane (2%) in oxygen. Following a right thoracotomy, each heart was exposed and a total of 6×10^6 cells were transplanted at a total of 7 different locations in the anterior free wall of the right ventricle. Cells were delivered using a 25 g needle using an injection volume of 250 μl. The sites of cell transplantation were marked with a suture. To prevent graft rejection, the animals were treated with an immunosuppressive regimen (cyclosporine, 10 mg/kg/d and methylprednisolone, 3 mg/kg/d). 7 days following cell transplantation, a second thoracotomy and a detailed epicardial electrophysiological study were performed.
The ERP in the pigs was measured in a similar manner to that in the rats but using slower basic stimulation intervals (CLs of 350, 400 and 500 ms). The ERP was measured at the site of cell transplantation as well as in remote sites and also following local intramyocardial injection of Margatoxin at the examined sites.

[8] = test system: Kv 1.3 channel of grafted fibroblasts in left ventricular myocardium; experiment: ERP after Margatoxin in rats grafted with Kv1.3 fibroblasts; assay type: in vivo, rat; settings: 9 μg/kg intraperitoneal bolus; for local ventricular ERP at the site of cell transplantation after MTx, group mean: 154±13 ms before blocker (FIG. 19b)
Procedure: Rat model—Male Sprague-Dawley rats weighing 200-250 gr were anesthetized using A Xylasine (0.5 mg/kg) and Ketamine (0.5 mg/kg) preparation [see Example 7]. The animals were then intubated and ventilated using a Harvard small-animal mechanical respirator. The chest wall was opened using a left thoracotomy and the heart was exposed. After removal of the pericardium, a total of 6×10^6 cells (either fibroblasts without transfections in the control group or fibroblast overexpressing the KV1.3 channel in the study group) were transplanted into the anterior aspect of the left ventricular wall using a 28 g needle. In order to prevent graft rejection, all animals were treated with a daily dose of cyclosporin (10 mg/kg) and methyprednisolone (2 mg/kg). The animals underwent a detailed electrophysiological study (see below) immediately before cell grafting and 7 days post-transplantation.
In vivo electrophysiological studies—The electrophysiological study in rats included a standard ventricular pacing protocol to determine the local myocardial effective refractory period (ERP). The ERP was evaluated by applying a train of 20 stimuli at a fixed cycle-length of 200 ms (S1), followed by a single premature stimulus (S2). The S1-S2 coupling interval was gradually shortened. The ERP was determined as the shortest S1-S2 coupling interval still capable of eliciting a ventricular response. Stimuli were generated using a computer controlled STG 1004 stimulus generator with the matching MC-Stim software (both from Multi Channel Systems, Reutlingen, Germany).
The ERP was measured at the site of cell transplantation and at remote sites, both prior to cell transplantation and seven days following cell grafting. In order to dissect the role of the overexpressed channel in altering the local myocardial electrophysiological properties, the ERP was measured also at each site following application of 9 μg/kg of Margatoxin (Alomone Labs, Jerusalem, Israel), a specific Kv 1.3 channel blocker as an intraperitoneal bolus.

[9] = target: mutant voltage gated potassium channel Kv1.3 (GenBank Accession number H18261) expressed in NIH 3T3 fibroblasts; experiment: cell-based or functional assay

With `N[C@H](CCCP(=O)(O)O)C(=O)O` [APV, D-2-amino-5-phosphonovalerate] the spiking activity ([1]; 20 μM added to the cultured neuronal network) was “completely abolished”.

For `O=[N+]([O-])c1cc2nc(O)c(O)nc2cc1[N+](=O)[O-]` [DNQX], the spiking activity ([1]; 10 μM added to the cultured neuronal network) was “completely abolished”.

For `CN1CCc2cc3c(cc2[C@H]1[C@@H]1OC(=O)c2c1ccc1c2OCO1)OCO3` [bicuculin], the spiking activity ([1]; 5 μM added to the cultured neuronal network) was “completely abolished”.

With “Charybdotoxin (QFTNVSCTTSKECWSVCQRLHNTSRGKCMNKKCRCYS) [CTX]” the beating frequency [2] was “did not significantly alter”, the “reversibility of the negative chronotropic effect induced by the transfected fibroblast” value [3] was “full reversibility” and the “increase of spontaneous activity rate” value ([4]; CTX 10 nM) was 20%. For the same molecule, the “increase of spontaneous activity rate” value ([4]; CTX 100 nM) was 55%, the conduction block factor ([4]; application of Charybdotoxin, co-cultures with Kv1.3 transfected fibroblasts, n=10 (FIG. 11)) was “substantially decreased” and the conduction blocks ([4]; following treatment with CTX (10 nM, FIG. 7d; FIG. 11)) was “reversed”. The “uncoupling effect after fibroblast seeding” value ([4]; following treatment with CTX (100 nM, FIGS. 6f-g)) was “reversed”, the “increase of spontaneous activity rate” value ([5]; CTX 10 nM) was “did not increase” and the “increase of spontaneous activity rate” value ([5]; CTX 100 nM) was “up to 15%”. For the same molecule, the conduction block factor ([5]; application of Charybdotoxin, co-cultures with non-transfected fibroblasts, n=9 (FIG. 11)) was “minimal response”.

With “Margatoxin (TIINVKCTSPKQCLPPCKAQFGQSAGAKCMNGKCKCYPH)” the “local ERP after administration of Mtx, control group” value [6] was “did not change significantly”, the “local ERP after local application of MTx” value ([7]; pig, basic CL 400 ms, 310 ms before blocker (FIG. 20a)) was 220 ms and the “ventricular ERP after local application of MTx” value ([7]; pigs, all three CLs (FIG. 20b)) was “not different from the control sites”. For the same molecule, the “local ventricular ERP at the site of cell transplantation after MTx, group mean” value [8] was 117 ± 7.70 ms, the “local ventricular ERP at the site of cell transplantation after MTx, group mean” value ([8]; listed as MTx) was 117 ± 8 ms and the “ventricular ERP at the site of cell grafting after Margatoxin, one of the animals” value ([8]; 170 ms before blocker (FIG. 19a)) was 100 ms.

In the case of “Margatoxin (from UniProt P40755 1-39) (peptide)”, the local ventricular effective refractory period (ERP) at the graft site in one rat after Margatoxin (170 ms before) [9] is reported as 100 ms.

Source: patent US20080112927A1, “Cells and methods utilizing same for modifying the electrophysiological function of excitable tissues” (GeneGrafts Ltd., priority 2006, published 2008)
